# Source: patent US9932340B2, “Substituted indoles” (AbbVie Inc., priority 2014, dated 2018)
# Biological target: SUV420H1 enzyme (Homo sapiens, UniProt Q4FZB7)
# Assay: TR-FRET SAH SUV420H1 enzyme inhibition assay
# Format: biochemical
# Details: Histone Peptide H4(8-30)me1 and SAM, overnight at room temp, TR-FRET detection of SAH, read-out: TR-FRET SAH_SUV420H1 IC50
# Summary of the method: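 SUV420H1 (90 nM) preincubated 30 min with compound (3-fold dilutions, 50 to 0.00075 μM), then H4(8-30)me1 peptide 5 nM and SAM 4 nM added, overnight at room temp. SAH product detected by TR-FRET with Tb anti-SAH antibody and Oregon Green-SAH in RIPA buffer, 4 h; IC50 from Hill fit, asymptotes fixed 0-100%.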
# Sequence of SUV420H1 enzyme (Q4FZB7 whole entry): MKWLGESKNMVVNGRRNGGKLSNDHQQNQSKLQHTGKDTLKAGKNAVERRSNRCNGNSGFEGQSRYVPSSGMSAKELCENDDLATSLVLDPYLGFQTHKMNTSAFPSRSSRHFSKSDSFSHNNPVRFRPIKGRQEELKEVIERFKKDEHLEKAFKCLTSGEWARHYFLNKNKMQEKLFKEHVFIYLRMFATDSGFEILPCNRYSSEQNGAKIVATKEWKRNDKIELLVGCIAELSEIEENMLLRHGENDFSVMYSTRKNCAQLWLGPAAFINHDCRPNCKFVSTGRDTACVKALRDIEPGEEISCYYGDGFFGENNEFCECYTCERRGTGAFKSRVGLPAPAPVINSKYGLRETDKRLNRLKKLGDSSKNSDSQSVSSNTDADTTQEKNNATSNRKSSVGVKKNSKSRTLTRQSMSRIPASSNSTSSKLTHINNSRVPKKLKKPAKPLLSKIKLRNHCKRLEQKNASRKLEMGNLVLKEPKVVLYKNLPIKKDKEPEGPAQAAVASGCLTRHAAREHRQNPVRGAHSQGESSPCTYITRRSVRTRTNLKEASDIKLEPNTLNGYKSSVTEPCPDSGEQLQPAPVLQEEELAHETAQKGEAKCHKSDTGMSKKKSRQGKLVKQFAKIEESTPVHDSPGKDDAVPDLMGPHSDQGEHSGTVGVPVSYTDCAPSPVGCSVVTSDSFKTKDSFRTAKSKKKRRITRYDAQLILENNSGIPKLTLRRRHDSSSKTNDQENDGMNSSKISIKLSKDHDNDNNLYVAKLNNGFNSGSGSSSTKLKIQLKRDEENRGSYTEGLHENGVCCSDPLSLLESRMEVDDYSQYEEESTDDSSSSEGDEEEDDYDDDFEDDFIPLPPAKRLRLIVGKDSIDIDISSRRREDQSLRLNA
row,IC50 [nM],Compound
1,93.9,"Cc1nnccc1C(=O)NCc1cc2cc(Cl)cc(Cn3cnc4c(N)ncnc43)c2[nH]1 [Example 199, N-({7-[(6-amino-9H-purin-9-yl)methyl]-5-chloro-1H-indol-2-yl}methyl)-3-methylpyridazine-4-carboxamide]"
2,100,"Cc1nnccc1C(=O)NCc1cc2cc(C3=CCNCC3)cc(Cn3cnc4c(N)ncnc43)c2[nH]1 [Example 200, N-({7-[(6-amino-9H-purin-9-yl)methyl]-5-(1,2,3,6-tetrahydropyridin-4-yl)-1H-indol-2-yl}methyl)-3-methylpyridazine-4-carboxamide]"
3,58.9,"Cc1nnccc1C(=O)NCc1cc2cc(C3=CCC(F)(F)CC3)cc(Cn3cnc4c(N)ncnc43)c2[nH]1 [Example 201, N-({7-[(6-amino-9H-purin-9-yl)methyl]-5-(4,4-difluorocyclohex-1-en-1-yl)-1H-indol-2-yl}methyl)-3-methylpyridazine-4-carboxamide]"
4,64.1,"Cc1nnccc1C(=O)NCc1cc2cc(C3=CCN(S(C)(=O)=O)CC3)cc(Cn3cnc4c(N)ncnc43)c2[nH]1 [Example 202, N-({7-[(6-amino-9H-purin-9-yl)methyl]-5-[1-(methylsulfonyl)-1,2,3,6-tetrahydropyridin-4-yl]-1H-indol-2-yl}methyl)-3-methylpyridazine-4-carboxamide]"
5,27.7,"CC(=O)N1CC=C(c2cc(Cn3cnc4c(N)ncnc43)c3[nH]c(CNC(=O)c4ccnnc4C)cc3c2)CC1 [Example 203, N-({5-(1-acetyl-1,2,3,6-tetrahydropyridin-4-yl)-7-[(6-amino-9H-purin-9-yl)methyl]-1H-indol-2-yl}methyl)-3-methylpyridazine-4-carboxamide]"
6,53.2,"Cc1nnccc1C(=O)NCc1cc2cc(C3=CCN(C(=O)OC(C)(C)C)CC3)cc(Cn3cnc4c(N)ncnc43)c2[nH]1 [Example 204, tert-butyl 4-{7-[(6-amino-9H-purin-9-yl)methyl]-2-({[(3-methylpyridazin-4-yl)carbonyl]amino}methyl)-1H-indol-5-yl}-3,6-dihydropyridine-1(2H)-carboxylate]"
7,3430,"Cc1cnc(C(=O)NCc2cc3cc(Cl)cc(Cn4cnc5c(N)ncnc54)c3[nH]2)cn1 [Example 205, N-({7-[(6-amino-9H-purin-9-yl)methyl]-5-chloro-1H-indol-2-yl}methyl)-5-methylpyrazine-2-carboxamide]"
8,2760,"Nc1ncnc2c1ncn2Cc1cc(Cl)cc2cc(CNCc3ccc(Cl)c(Cl)c3)[nH]c12 [Example 213, 9-[(5-chloro-2-{[(3,4-dichlorobenzyl)amino]methyl}-1H-indol-7-yl)methyl]-9H-purin-6-amine]"
9,2330,"Nc1ncnc2c1ncn2Cc1cc(Cl)cc2cc(CNCc3cccc(Cl)c3F)[nH]c12 [Example 218, 9-[(5-chloro-2-{[(3-chloro-2-fluorobenzyl)amino]methyl}-1H-indol-7-yl)methyl]-9H-purin-6-amine]"
10,3130,"Nc1ncnc2c1ncn2Cc1cc(Cl)cc2cc(CNCc3c(F)cccc3F)[nH]c12 [Example 219, 9-[(5-chloro-2-{[(2,6-difluorobenzyl)amino]methyl}-1H-indol-7-yl)methyl]-9H-purin-6-amine]"
11,4050,"Nc1ncnc2c1ncn2Cc1cc(Cl)cc2cc(CNC(=O)c3ccccc3)[nH]c12 [Example 220, N-({7-[(6-amino-9H-purin-9-yl)methyl]-5-chloro-1H-indol-2-yl}methyl)benzamide]"
12,6240,"Nc1ncnc2c1ncn2Cc1cc(Cl)cc2cc(CNC(=O)c3ccc(Cl)cc3)[nH]c12 [Example 221, N-({7-[(6-amino-9H-purin-9-yl)methyl]-5-chloro-1H-indol-2-yl}methyl)-4-chlorobenzamide]"
13,3540,"Nc1ncnc2c1ncn2Cc1cc(Cl)cc2cc(CNC(=O)c3cccc(Cl)c3)[nH]c12 [Example 222, N-({7-[(6-amino-9H-purin-9-yl)methyl]-5-chloro-1H-indol-2-yl}methyl)-3-chlorobenzamide]"
14,8250,"Nc1ncnc2c1ncn2Cc1cc(Cl)cc2cc(CNC(=O)c3ccc(F)cc3)[nH]c12 [Example 223, N-({7-[(6-amino-9H-purin-9-yl)methyl]-5-chloro-1H-indol-2-yl}methyl)-4-fluorobenzamide]"
15,2770,"Nc1ncnc2c1ncn2Cc1cc(Cl)cc2cc(CNC(=O)c3cccc(F)c3)[nH]c12 [Example 224, N-({7-[(6-amino-9H-purin-9-yl)methyl]-5-chloro-1H-indol-2-yl}methyl)-3-fluorobenzamide]"

# Further lines, the compound ahead of its results:
row,Compound,IC50 [nM]
1,"Nc1ncnc2c1ncn2Cc1cc(Cl)cc2cc(C(N)Cc3ccccc3)[nH]c12 (centres unmarked) [Example 206, 9-{[2-(1-amino-2-phenylethyl)-5-chloro-1H-indol-7-yl]methyl}-9H-purin-6-amine]",1050
2,"Nc1ncnc2c1ncn2Cc1cc(Cl)cc2cc(CNCc3ccccc3)[nH]c12 [Example 207, 9-({2-[(benzylamino)methyl]-5-chloro-1H-indol-7-yl}methyl)-9H-purin-6-amine]",943
3,"Nc1ncnc2c1ncn2Cc1cc(Cl)cc2cc(CNCc3ccccc3Br)[nH]c12 [Example 208, 9-[(2-{[(2-bromobenzyl)amino]methyl}-5-chloro-1H-indol-7-yl)methyl]-9H-purin-6-amine]",1890
4,"Nc1ncnc2c1ncn2Cc1cc(Cl)cc2cc(CNCc3cccc(Cl)c3)[nH]c12 [Example 209, 9-[(5-chloro-2-{[(3-chlorobenzyl)amino]methyl}-1H-indol-7-yl)methyl]-9H-purin-6-amine]",1920
5,"Nc1ncnc2c1ncn2Cc1cc(Cl)cc2cc(CNCc3ccccc3Cl)[nH]c12 [Example 210, 9-[(5-chloro-2-{[(2-chlorobenzyl)amino]methyl}-1H-indol-7-yl)methyl]-9H-purin-6-amine]",3340
6,"Nc1ncnc2c1ncn2Cc1cc(Cl)cc2cc(CNCc3c(Cl)cccc3Cl)[nH]c12 [Example 211, 9-[(5-chloro-2-{[(2,6-dichlorobenzyl)amino]methyl}-1H-indol-7-yl)methyl]-9H-purin-6-amine]",9330
7,"Nc1ncnc2c1ncn2Cc1cc(Cl)cc2cc(CNCc3cc(Cl)cc(Cl)c3)[nH]c12 [Example 212, 9-[(5-chloro-2-{[(3,5-dichlorobenzyl)amino]methyl}-1H-indol-7-yl)methyl]-9H-purin-6-amine]",3640
8,"Nc1ncnc2c1ncn2Cc1cc(Cl)cc2cc(CNCc3ccccc3F)[nH]c12 [Example 214, 9-[(5-chloro-2-{[(2-fluorobenzyl)amino]methyl}-1H-indol-7-yl)methyl]-9H-purin-6-amine]",2840
9,"Nc1ncnc2c1ncn2Cc1cc(Cl)cc2cc(CNCc3c(F)cccc3Cl)[nH]c12 [Example 215, 9-[(5-chloro-2-{[(2-chloro-6-fluorobenzyl)amino]methyl}-1H-indol-7-yl)methyl]-9H-purin-6-amine]",3910
10,"Nc1ncnc2c1ncn2Cc1cc(Cl)cc2cc(CNCc3cc(F)cc(Cl)c3)[nH]c12 [Example 216, 9-[(5-chloro-2-{[(3-chloro-5-fluorobenzyl)amino]methyl}-1H-indol-7-yl)methyl]-9H-purin-6-amine]",2470
11,"Nc1ncnc2c1ncn2Cc1cc(Cl)cc2cc(CNCc3cc(F)ccc3Cl)[nH]c12 [Example 217, 9-[(5-chloro-2-{[(2-chloro-5-fluorobenzyl)amino]methyl}-1H-indol-7-yl)methyl]-9H-purin-6-amine]",2430
